Activity data for one compound are collected here from paper PMC6264316, “The Triterpenes 3β-Lup-20(29)-en-3-ol and 3β-Lup-20(29)-en-3-yl Acetate and the Carbohydrate 1,2,3,4,5,6-Hexa-O-acetyl-dulcitol as Photosynthesis Light Reactions Inhibitors” (Molecules, 2011).

The target in test [1] is T1, Mg2+-ATPase bound to thylakoid membrane (membrane-bound CF1; H+-ATPase) (Spinacia oleracea, UniProt P00825+P06450).
T1 construct: gene atpB; with ATP synthase subunit a, chloroplastic; ATP synthase subunit b, chloroplastic; ATP synthase subunit b', chloroplastic; ATP synthase subunit c, chloroplastic
Briefly: light-triggered Mg2+-ATPase activity in thylakoids, released Pi. Format: biochemical. As to conditions: read-out: Mg^2+-ATPase (%). From the text:
light-triggered Mg2+-ATPase activity in thylakoids, released Pi on Mg2+-ATPase bound to thylakoid membrane (membrane-bound CF1; H+-ATPase)

Test [2] concerns the target T2, isolated CF1 (Ca2+-ATPase) (Spinacia oleracea, UniProt P00825+P06450).
T2 construct: gene atpB
Briefly: Ca2+-ATPase activity, released Pi. Particulars: read-out: Ca^2+-ATPase (%). The test is classed as biochemical. From the text: Ca2+-ATPase activity, released Pi on isolated CF1 (Ca2+-ATPase)

T2 sequence (P00825 whole entry): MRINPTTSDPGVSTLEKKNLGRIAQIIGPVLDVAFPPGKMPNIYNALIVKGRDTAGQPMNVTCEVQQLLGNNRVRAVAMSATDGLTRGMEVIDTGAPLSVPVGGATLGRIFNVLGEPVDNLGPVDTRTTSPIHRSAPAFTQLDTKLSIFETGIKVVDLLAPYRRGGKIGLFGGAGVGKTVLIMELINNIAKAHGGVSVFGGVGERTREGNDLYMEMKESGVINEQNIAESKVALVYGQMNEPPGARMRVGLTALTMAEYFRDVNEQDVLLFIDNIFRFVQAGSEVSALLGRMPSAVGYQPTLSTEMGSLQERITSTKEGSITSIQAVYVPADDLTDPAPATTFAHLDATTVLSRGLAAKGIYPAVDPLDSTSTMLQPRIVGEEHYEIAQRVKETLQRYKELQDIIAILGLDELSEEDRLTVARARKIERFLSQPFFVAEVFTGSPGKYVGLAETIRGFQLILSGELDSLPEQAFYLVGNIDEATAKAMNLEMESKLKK
T2 sequence (P06450 whole entry): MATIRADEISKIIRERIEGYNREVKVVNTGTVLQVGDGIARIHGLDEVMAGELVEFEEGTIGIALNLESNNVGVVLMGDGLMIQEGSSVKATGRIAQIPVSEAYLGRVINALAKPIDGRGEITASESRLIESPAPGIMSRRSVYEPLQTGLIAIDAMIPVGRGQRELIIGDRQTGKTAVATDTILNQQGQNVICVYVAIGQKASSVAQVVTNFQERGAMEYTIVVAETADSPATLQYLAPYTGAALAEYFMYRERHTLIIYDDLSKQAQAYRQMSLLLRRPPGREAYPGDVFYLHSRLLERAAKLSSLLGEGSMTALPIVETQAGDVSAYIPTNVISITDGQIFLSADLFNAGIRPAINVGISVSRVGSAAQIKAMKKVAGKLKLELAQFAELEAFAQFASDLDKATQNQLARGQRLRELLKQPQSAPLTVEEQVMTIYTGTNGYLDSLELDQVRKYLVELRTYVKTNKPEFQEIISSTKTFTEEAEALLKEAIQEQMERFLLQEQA
T2 sequence (P05435 42-364 partner): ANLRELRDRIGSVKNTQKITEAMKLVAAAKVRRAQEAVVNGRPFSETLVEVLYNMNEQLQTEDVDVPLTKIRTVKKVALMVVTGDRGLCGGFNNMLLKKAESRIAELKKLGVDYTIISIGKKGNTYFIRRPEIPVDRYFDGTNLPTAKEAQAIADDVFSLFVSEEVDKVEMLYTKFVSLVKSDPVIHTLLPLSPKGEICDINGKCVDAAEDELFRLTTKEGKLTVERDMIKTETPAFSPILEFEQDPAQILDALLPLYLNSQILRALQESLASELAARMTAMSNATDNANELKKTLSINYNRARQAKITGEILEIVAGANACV
T2 sequence (P11402 71-257 partner): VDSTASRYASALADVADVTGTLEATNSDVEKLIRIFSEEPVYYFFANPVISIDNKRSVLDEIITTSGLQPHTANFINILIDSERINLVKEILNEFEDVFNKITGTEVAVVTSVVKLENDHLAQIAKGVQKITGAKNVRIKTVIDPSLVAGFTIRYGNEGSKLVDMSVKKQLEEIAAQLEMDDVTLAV
T2 sequence (P00833 whole entry partner): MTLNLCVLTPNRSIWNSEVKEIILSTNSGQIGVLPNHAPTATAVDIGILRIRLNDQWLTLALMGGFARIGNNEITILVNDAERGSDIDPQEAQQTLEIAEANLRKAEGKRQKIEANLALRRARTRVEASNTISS

`C=C(C)[C@@H]1CC[C@]2(C)CC[C@]3(C)[C@H](CC[C@@H]4[C@@]5(C)CC[C@H](O)C(C)(C)[C@@H]5CC[C@]43C)[C@@H]12` [compound 1, 3β-Lup-20(29)-en-3-ol]: the activity at 100 µM in test [1] was 65%. Besides, the activity at 300 µM in test [2] came out at 179%.
